Target: PI3Kβ (Homo sapiens (Human), UniProt P42338)
Experiment: PI3K isoform TR-FRET enzymatic assay (PI3Kβ)
Assay type: biochemical
Details: 2× Km ATP, 30 minutes at 25° C.
Protocol: The compounds of formula (I) were characterized for their enzymatic activity against the PI3K isoforms. The activities were measured using a time-resolved fluorescence resonance energy transfer (TR-FRET) assay. TR-FRET monitored the formation of 3,4,5-inositol triphosphate molecule that competed with fluorescently labeled PIP3 for binding to the GRP-1 pleckstrin homology domain protein.
Class I PI3K isoforms were expressed and purified as heterodimeric recombinant proteins. All assay reagents and buffers for the TR-FRET assay were purchased from Millipore. […] The compounds were added to the assay solution and incubated for 30 minutes at 25° C. The reactions were terminated with a final concentration of 10 mM EDTA, 10 nM labeled-PIP3, and 35 nM Europium labeled GRP-1 detector protein before reading TR-FRET on an Envision plate reader (Ex: 340 nm; Em: 615/665 nm; 100 μs delay and 500 μs read window).
The results were normalized based on positive (1 μM wortmanin) and negative (DMSO) controls, and the IC50 values for PI3K α, β, δ, and γ were calculated from the fit of the dose-response curves to a four-parameter equation.

Chain of PI3Kβ (P42338 whole entry, canonical isoform): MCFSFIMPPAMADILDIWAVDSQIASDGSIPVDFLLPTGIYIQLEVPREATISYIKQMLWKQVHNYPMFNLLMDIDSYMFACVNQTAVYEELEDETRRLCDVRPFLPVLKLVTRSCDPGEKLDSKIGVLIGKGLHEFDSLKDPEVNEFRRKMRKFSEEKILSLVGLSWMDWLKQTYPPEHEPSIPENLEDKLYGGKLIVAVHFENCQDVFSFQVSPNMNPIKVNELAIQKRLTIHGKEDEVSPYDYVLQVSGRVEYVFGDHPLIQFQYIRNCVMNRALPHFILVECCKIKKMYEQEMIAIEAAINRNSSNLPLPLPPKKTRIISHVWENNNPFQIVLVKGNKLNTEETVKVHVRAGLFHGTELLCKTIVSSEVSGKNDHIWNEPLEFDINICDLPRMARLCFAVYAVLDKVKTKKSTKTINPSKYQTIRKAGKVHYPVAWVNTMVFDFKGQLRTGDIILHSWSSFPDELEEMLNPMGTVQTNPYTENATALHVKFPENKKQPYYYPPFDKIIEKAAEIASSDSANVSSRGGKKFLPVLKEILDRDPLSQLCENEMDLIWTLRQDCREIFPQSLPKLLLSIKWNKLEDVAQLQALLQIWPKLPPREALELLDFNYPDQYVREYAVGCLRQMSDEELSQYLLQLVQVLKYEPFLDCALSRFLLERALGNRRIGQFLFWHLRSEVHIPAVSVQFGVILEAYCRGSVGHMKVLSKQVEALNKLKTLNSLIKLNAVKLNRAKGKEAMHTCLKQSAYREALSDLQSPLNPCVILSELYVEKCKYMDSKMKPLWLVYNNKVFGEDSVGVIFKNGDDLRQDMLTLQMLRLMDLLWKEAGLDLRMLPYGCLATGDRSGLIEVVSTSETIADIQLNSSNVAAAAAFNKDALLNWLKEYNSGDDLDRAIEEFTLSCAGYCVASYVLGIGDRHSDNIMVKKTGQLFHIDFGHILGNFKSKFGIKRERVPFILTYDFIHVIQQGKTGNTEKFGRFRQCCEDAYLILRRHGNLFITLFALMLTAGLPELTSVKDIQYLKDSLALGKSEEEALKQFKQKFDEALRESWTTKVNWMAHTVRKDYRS
Chain of PI3Kβ (P27986 whole entry partner, canonical isoform): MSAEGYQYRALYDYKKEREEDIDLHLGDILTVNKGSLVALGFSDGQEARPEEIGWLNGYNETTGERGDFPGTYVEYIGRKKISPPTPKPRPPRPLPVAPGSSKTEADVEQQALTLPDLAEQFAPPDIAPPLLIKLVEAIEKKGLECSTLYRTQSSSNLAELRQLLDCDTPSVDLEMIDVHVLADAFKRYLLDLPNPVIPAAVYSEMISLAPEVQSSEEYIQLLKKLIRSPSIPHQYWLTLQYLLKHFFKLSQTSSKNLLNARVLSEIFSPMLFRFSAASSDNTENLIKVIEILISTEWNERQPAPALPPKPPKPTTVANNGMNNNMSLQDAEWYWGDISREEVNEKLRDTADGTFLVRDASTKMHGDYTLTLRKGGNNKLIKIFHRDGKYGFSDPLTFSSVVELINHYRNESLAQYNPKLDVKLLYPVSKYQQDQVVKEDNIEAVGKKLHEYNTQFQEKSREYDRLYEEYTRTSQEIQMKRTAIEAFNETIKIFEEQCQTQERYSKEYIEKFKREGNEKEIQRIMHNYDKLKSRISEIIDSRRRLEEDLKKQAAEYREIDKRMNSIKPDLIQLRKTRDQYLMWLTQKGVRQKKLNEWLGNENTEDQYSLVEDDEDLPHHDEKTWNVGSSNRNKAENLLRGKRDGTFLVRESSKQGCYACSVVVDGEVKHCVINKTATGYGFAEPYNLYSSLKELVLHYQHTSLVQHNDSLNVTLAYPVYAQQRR

In order of falling IC50:
1. Cc1nnc(-c2cc(N3CCOCC3)cc3c2nc(-c2ccncc2)n3-c2ccnc3c(Cl)cccc23)[nH]1 [Example 25, 4-(1-(8-chloroquinolin-4-yl)-4-(5-methyl-4H-1,2,4-triazol-3-yl)-2-(pyridin-4-yl)-1H-benzo[d]imidazol-6-yl)morpholine]  2200 nM
2. c1ccc2c(-n3c(C4COC4)nc4c(-c5nnc[nH]5)cc(N5CCOCC5)cc43)ccnc2c1 [Example 24, 4-(2-(oxetan-3-yl)-1-(quinolin-4-yl)-4-(4H-1,2,4-triazol-3-yl)-1H-benzo[d]imidazol-6-yl)morpholine]  1500 nM
3. Cc1nnc(-c2cc(N3CCOCC3)cc3c2nc(-c2cccnc2)n3-c2ccnc3c(Cl)cccc23)[nH]1 [Example 23, 4-(1-(8-chloroquinolin-4-yl)-4-(5-methyl-4H-1,2,4-triazol-3-yl)-2-(pyridin-3-yl)-1H-benzo[d]imidazol-6-yl)morpholine]  390 nM
4. Cc1nnc(-c2cc(N3CCOCC3)cc3c2ncn3-c2ccnc3cc(F)ccc23)[nH]1 [Example 22, 4-(1-(7-fluoroquinolin-4-yl)-4-(5-methyl-4H-1,2,4-triazol-3-yl)-1H-benzo[d]imidazol-6-yl)morpholine]  280 nM
5. Cc1nc2c(-c3nnc[nH]3)cc(N3CCOCC3)cc2n1-c1c(Cl)cnc2c(F)cccc12 [Example 27, 4-[3-(3-chloro-8-fluoroquinolin-4-yl)-2-methyl-7-(4H-1,2,4-triazol-3-yl)benzimidazol-5-yl]morpholine]  56 nM
6. CCc1nc2c(-c3nnc(C)[nH]3)cc(N3CCOCC3)cc2n1-c1c(Cl)cnc2c(Cl)cccc12 [Example 26, 4-[3-(3,8-dichloroquinolin-4-yl)-2-ethyl-7-(5-methyl-4H-1,2,4-triazol-3-yl)benzimidazol-5-yl]morpholine]  22 nM
7. Cc1nnc(-c2cc(N3CCOCC3)cc3c2ncn3-c2ccnc3c(Cl)c(F)ccc23)[nH]1 [Example 40, 4-(1-(8-chloro-7-fluoroquinolin-4-yl)-4-(5-methyl-4H-1,2,4-triazol-3-yl)-1H-benzo[d]imidazol-6-yl)morpholine]  22 nM
8. CCCc1nc2c(-c3nnc[nH]3)cc(N3CCOCC3)cc2n1-c1ccnc2ccccc12 [Example 41, 4-(2-propyl-1-(quinolin-4-yl)-4-(4H-1,2,4-triazol-3-yl)-1H-benzo[d]imidazol-6-yl)morpholine]  21 nM
9. COCCc1nc2c(-c3nnc[nH]3)cc(N3CCOCC3)cc2n1-c1ccnc2c(F)cccc12 [Example 42, 4-(1-(8-fluoroquinolin-4-yl)-2-(2-methoxyethyl)-4-(4H-1,2,4-triazol-3-yl)-1H-benzo[d]imidazol-6-yl)morpholine]  20 nM
10. CCCc1nc2c(-c3nnc(C)[nH]3)cc(N3CCOCC3)cc2n1-c1ccnc2c(C)ccc(F)c12 [Example 43, 4-(1-(5-fluoro-8-methylquinolin-4-yl)-4-(5-methyl-4H-1,2,4-triazol-3-yl)-2-propyl-1H-benzo[d]imidazol-6-yl)morpholine]  20 nM
11. Cc1nnc(-c2cc(N3CCOCC3)cc3c2ncn3-c2ccnc3c(F)ccc(F)c23)[nH]1 [Example 44, 4-(1-(5,8-difluoroquinolin-4-yl)-4-(5-methyl-4H-1,2,4-triazol-3-yl)-1H-benzo[d]imidazol-6-yl)morpholine]  19 nM
12. CCCc1nc2c(-c3nnc[nH]3)cc(N3CCOCC3)cc2n1-c1ccnc2c(F)ccc(F)c12 [Example 45, 4-(1-(5,8-difluoroquinolin-4-yl)-2-propyl-4-(4H-1,2,4-triazol-3-yl)-1H-benzo[d]imidazol-6-yl)morpholine]  19 nM
13. Cc1nc2c(-c3nnc[nH]3)cc(N3CCOCC3)cc2n1-c1ccnc2c(Cl)cc(F)cc12 [Example 35, 4-(1-(8-chloro-6-fluoroquinolin-4-yl)-2-methyl-4-(4H-1,2,4-triazol-3-yl)-1H-benzo[d]imidazol-6-yl)morpholine]  11 nM
14. CC(C)c1nc2c(-c3nnc[nH]3)cc(N3CCOCC3)cc2n1-c1ccnc2c(Cl)cccc12 [Example 36, 4-(1-(8-chloroquinolin-4-yl)-2-isopropyl-4-(4H-1,2,4-triazol-3-yl)-1H-benzo[d]imidazol-6-yl)morpholine]  11 nM
15. CCCc1nc2c(-c3nnc[nH]3)cc(N3CCOCC3)cc2n1-c1ccnc2c(C)ccc(F)c12 [Example 37, 4-(1-(5-fluoro-8-methylquinolin-4-yl)-2-propyl-4-(4H-1,2,4-triazol-3-yl)-1H-benzo[d]imidazol-6-yl)morpholine]  11 nM
16. Fc1ccc2c(-n3c(C4CC4)nc4c(-c5nnc[nH]5)cc(N5CCOCC5)cc43)ccnc2c1Cl [Example 38, 4-(1-(8-chloro-7-fluoroquinolin-4-yl)-2-cyclopropyl-4-(4H-1,2,4-triazol-3-yl)-1H-benzo[d]imidazol-6-yl)morpholine]  11 nM
17. Cc1nc2c(-c3nnc[nH]3)cc(N3CCOCC3)cc2n1-c1ccnc2c(Cl)c(F)ccc12 [Example 39, 4-(1-(8-chloro-7-fluoroquinolin-4-yl)-2-methyl-4-(4H-1,2,4-triazol-3-yl)-1H-benzo[d]imidazol-6-yl)morpholine]  11 nM
18. CCCc1nc2c(-c3nnc[nH]3)cc(N3CCOCC3)cc2n1-c1ccnc2c(Cl)cc(F)cc12 [Example 33, 4-(1-(8-chloro-6-fluoroquinolin-4-yl)-2-propyl-4-(4H-1,2,4-triazol-3-yl)-1H-benzo[d]imidazol-6-yl)morpholine]  10 nM
19. CCCc1nc2c(-c3nnc[nH]3)cc(N3CCOCC3)cc2n1-c1ccnc2c(Cl)c(F)ccc12 [Example 34, 4-(1-(8-chloro-7-fluoroquinolin-4-yl)-2-propyl-4-(4H-1,2,4-triazol-3-yl)-1H-benzo[d]imidazol-6-yl)morpholine]  10 nM
20. Fc1ccc2c(-n3c(CC4CC4)nc4c(-c5nnc[nH]5)cc(N5CCOCC5)cc43)ccnc2c1Cl [Example 31, 4-(1-(8-chloro-7-fluoroquinolin-4-yl)-2-(cyclopropylmethyl)-4-(4H-1,2,4-triazol-3-yl)-1H-benzo[d]imidazol-6-yl)morpholine]  9 nM
21. Clc1cccc2c(-n3c(CC4CC4)nc4c(-c5nnc[nH]5)cc(N5CCOCC5)cc43)ccnc12 [Example 32, 4-(1-(8-chloroquinolin-4-yl)-2-(cyclopropylmethyl)-4-(4H-1,2,4-triazol-3-yl)-1H-benzo[d]imidazol-6-yl)morpholine]  9 nM
22. Clc1cccc2c(-n3c(C4CCC4)nc4c(-c5nnc[nH]5)cc(N5CCOCC5)cc43)ccnc12 [Example 30, 4-(1-(8-chloroquinolin-4-yl)-2-cyclobutyl-4-(4H-1,2,4-triazol-3-yl)-1H-benzo[d]imidazol-6-yl)morpholine]  8 nM
23. Fc1ccc2c(-n3cnc4c(-c5nnc[nH]5)cc(N5CCOCC5)cc43)ccnc2c1Cl [Example 29, 4-(1-(8-chloro-7-fluoroquinolin-4-yl)-4-(4H-1,2,4-triazol-3-yl)-1H-benzo[d]imidazol-6-yl)morpholine]  7 nM
24. Fc1ccc(F)c2c(-n3cnc4c(-c5nnc[nH]5)cc(N5CCOCC5)cc43)ccnc12 [Example 28, 4-(1-(5,8-difluoroquinolin-4-yl)-4-(4H-1,2,4-triazol-3-yl)-1H-benzo[d]imidazol-6-yl)morpholine]  3 nM

— patent US10214519B2, “Phosphatidylinositol 3-kinase inhibitors” (Gilead Sciences, Inc., priority 2016, dated 2019)
